Source: patent US20080058213A1, “Benzoxazole Compounds” (priority 2004, published 2008)

Key:
Format in all cases: in vivo
southern crabgrass = assay: Foliage treatment test for upland field (Test Example 3): southern crabgrass; settings: foliage treatment at 1.0-2.0 leaf stage of southern crabgrass, examined after 3 weeks
Excerpt: (§1) Evaluation of the herbicidal effect is shown in the following six grades, by comparing the condition of untreated control and growth inhibition (%): • 0: 0%-less than 20% • 1: 20%-less than 40% • 2: 40%-less than 60% • 3: 60%-less than 80% • 4: 80%-less than 100% • 5: 100%.
(§2) Compost mixed soil was filled in 1/3,000 are pots, seeded with southern crabgrass, common lambsquaters, slender amaranth, common purslane, velvetleaf, wheat, corn and soybean. The seeds were covered up with the soil and cultured in a glasshouse kept at 25° C. on the average.
(§3) Wettable powders containing the object compounds (1) as identified in Table 1, which were formulated following Preparation Example 2, were diluted with water to the prescribed dose of the active ingredient, and uniformly sprayed onto the weeds at 1.0-2.0 leaf stage of the southern crabgrass at an application water of 15 liters per are.
(§4) After placing the test pots in a grasshouse kept at 25° C. on the average for 3 weeks, the herbicidal effect was examined.
(§5) Evaluation of the herbicidal effect was conducted in the similar manner to Test Example 1.

soybean [1] = assay: Foliage treatment test for upland field (Test Example 3): phytotoxicity to soybean; settings: foliage treatment at 1.0-2.0 leaf stage of southern crabgrass, examined after 3 weeks
Method: (§6) Evaluation of phytotoxicity is shown in the following six grades, as compared with the condition of untreated control: • 0: normal growth • 1: little damaged • 2: low damaged • 3: medium damaged • 4: serious damaged • 5: complete killed.
as §2, §4

[2] = system: velvetleaf (Abutilon theophrasti); assay: Soil treatment test for upland field (Test Example 2): velvetleaf; settings: soil treatment before germination, examined after 3 weeks
Excerpt: as §1
(§7) Upland field soil was filled in 1/3,000 are pots, seeded with southern crabgrass (Digitaria ciliaris), common lambsquaters (Chenopodium album), slender amaranth (Amaranthus viridis), common purslane (Portulaca oleracea), velvetleaf (Abutilon theophrasti), wheat, corn and soybean. The seeds were covered up with the soil.
(§8) Wettable powders containing the object compounds (1) as identified in Table 1, which were formulated following Preparation Example 2, were diluted with adequate amount of water to secure the prescribed dose of the active ingredient, and uniformly sprayed onto the surface soil layer after the seeding and before germination of the weeds, at an application water of 15 liters per are.
(§9) After placing the test pots in a glasshouse which was kept at an average temperature of 25° C. for 3 weeks, the herbicidal effect was examined.
(§10) Evaluations of the herbicidal effect and phytotoxicity were made in the manner similar to those in the above Test Example 1.

corn [3] = assay: Foliage treatment test for upland field (Test Example 3): phytotoxicity to corn; settings: foliage treatment at 1.0-2.0 leaf stage of southern crabgrass, examined after 3 weeks
Method: as §6, §2, §4

[4] = system: Japanese bulrush (Scirpus juncoides); assay: Weed control test for paddy field (Test Example 1): Japanese bulrush; settings: paddy pots, treated at 1.0 leaf stage of barnyard grass, examined after 3 weeks
Excerpt: (§11) Paddy field soil was filled in 1/10,000 are pots, kneaded with adequate amounts of water and chemical fertilizer, seeded with barnyard grass (Echinochloa crusgalli), Monochoria (Monochoria vaginalis), Japanese bulrush (Scirpus juncoides) and flat sedge (Cyperus serotinus), and further transplanted with 2.0 leaf stage of rice plant. The pots were maintained under the water-filled condition to a depth of 3 cm.
(§12) Wettable powders containing the compounds (1) as identified in Table 1, which were formulated following Production Example 2, were diluted with adequate amount of water and applied to the pots dropwise with pippet at a prescribed dose of the active ingredients per are, at 1.0 leaf stage of the barnyard grass.
(§13) After placing the pots in a glasshouse which was controlled at an average temperature of 25° C. for 3 weeks, herbicidal effect was examined.
as §1

[5] = system: common purslane (Portulaca oleracea); assay: Soil treatment test for upland field (Test Example 2): common purslane; settings: soil treatment before germination, examined after 3 weeks
Excerpt: as §1, §7, §8, §9, §10

slender amaranth = assay: Foliage treatment test for upland field (Test Example 3): slender amaranth; settings: foliage treatment at 1.0-2.0 leaf stage of southern crabgrass, examined after 3 weeks
Excerpt: as §1, §2, §3, §4, §5

corn [6] = assay: Soil treatment test for upland field (Test Example 2): phytotoxicity to corn; settings: soil treatment before germination, examined after 3 weeks
Excerpt: as §6, §7, §9

common purslane = assay: Foliage treatment test for upland field (Test Example 3): common purslane; settings: foliage treatment at 1.0-2.0 leaf stage of southern crabgrass, examined after 3 weeks
Excerpt: as §1, §2, §3, §4, §5

wheat [7] = assay: Soil treatment test for upland field (Test Example 2): phytotoxicity to wheat; settings: soil treatment before germination, examined after 3 weeks
Excerpt: as §6, §7, §9

common lambsquaters = assay: Foliage treatment test for upland field (Test Example 3): common lambsquaters; settings: foliage treatment at 1.0-2.0 leaf stage of southern crabgrass, examined after 3 weeks
Excerpt: as §1, §2, §3, §4, §5

[8] = system: barnyard grass (Echinochloa crusgalli); assay: Weed control test for paddy field (Test Example 1): barnyard grass; settings: paddy pots, treated at 1.0 leaf stage of barnyard grass, examined after 3 weeks
Excerpt: as §11, §12, §13, §1

[9] = system: common lambsquaters (Chenopodium album); assay: Soil treatment test for upland field (Test Example 2): common lambsquaters; settings: soil treatment before germination, examined after 3 weeks
Excerpt: as §1, §7, §8, §9, §10

[10] = system: flat sedge (Cyperus serotinus); assay: Weed control test for paddy field (Test Example 1): flat sedge; settings: paddy pots, treated at 1.0 leaf stage of barnyard grass, examined after 3 weeks
Excerpt: as §11, §12, §13, §1

wheat [11] = assay: Foliage treatment test for upland field (Test Example 3): phytotoxicity to wheat; settings: foliage treatment at 1.0-2.0 leaf stage of southern crabgrass, examined after 3 weeks
Method: as §6, §2, §4

[12] = system: Monochoria (Monochoria vaginalis); assay: Weed control test for paddy field (Test Example 1): Monochoria; settings: paddy pots, treated at 1.0 leaf stage of barnyard grass, examined after 3 weeks
Excerpt: as §11, §12, §13, §1

soybean [13] = assay: Soil treatment test for upland field (Test Example 2): phytotoxicity to soybean; settings: soil treatment before germination, examined after 3 weeks
Excerpt: as §6, §7, §9

[14] = system: slender amaranth (Amaranthus viridis); assay: Soil treatment test for upland field (Test Example 2): slender amaranth; settings: soil treatment before germination, examined after 3 weeks
Excerpt: as §1, §7, §8, §9, §10

velvetleaf = assay: Foliage treatment test for upland field (Test Example 3): velvetleaf; settings: foliage treatment at 1.0-2.0 leaf stage of southern crabgrass, examined after 3 weeks
Excerpt: as §1, §2, §3, §4, §5

rice plant = assay: Weed control test for paddy field (Test Example 1): phytotoxicity to rice plant; settings: paddy pots, treated at 1.0 leaf stage of barnyard grass, examined after 3 weeks
Excerpt: as §11, §12, §13, §6

[15] = system: southern crabgrass (Digitaria ciliaris); assay: Soil treatment test for upland field (Test Example 2): southern crabgrass; settings: soil treatment before germination, examined after 3 weeks
Excerpt: as §1, §7, §8, §9, §10

COCC(=Cc1ccc(Cl)c(C(F)(F)F)c1)c1nc2cc(Cl)ccc2o1 [Compound 9]
2 (40%-less than 60%): Herbicidal Effect Flat sedge ([10]; dose 2.5 g ai/a)
0: Phytotoxicity soybean (soybean [1]; dose 2.5 g ai/a) | Phytotoxicity wheat (wheat [7]; dose 2.5 g ai/a) | Phytotoxicity soybean (soybean [13]; dose 2.5 g ai/a) | Phytotoxicity soybean (soybean [13]; dose 5 g ai/a) | Phytotoxicity Rice plant (rice plant; dose 2.5 g ai/a) | Phytotoxicity Rice plant (rice plant; dose 5 g ai/a)
5 (100%): Herbicidal Effect southern crabgrass (southern crabgrass; dose 2.5 g ai/a) | Herbicidal Effect southern crabgrass (southern crabgrass; dose 5 g ai/a) | Herbicidal Effect velvetleaf ([2]; dose 5 g ai/a) | Herbicidal Effect common purslane ([5]; dose 2.5 g ai/a) | Herbicidal Effect common purslane ([5]; dose 5 g ai/a) | Herbicidal Effect slender amaranth (slender amaranth; dose 2.5 g ai/a) | Herbicidal Effect slender amaranth (slender amaranth; dose 5 g ai/a) | Herbicidal Effect common purslane (common purslane; dose 2.5 g ai/a) | Herbicidal Effect common purslane (common purslane; dose 5 g ai/a) | Herbicidal Effect Common lambsquatters (common lambsquaters; dose 2.5 g ai/a) | Herbicidal Effect Common lambsquatters (common lambsquaters; dose 5 g ai/a) | Herbicidal Effect Barnyard grass ([8]; dose 5 g ai/a) | Herbicidal Effect common lambsquaters ([9]; dose 2.5 g ai/a) | Herbicidal Effect common lambsquaters ([9]; dose 5 g ai/a) | Herbicidal Effect Monochoria vaginalis ([12]; dose 2.5 g ai/a) | Herbicidal Effect Monochoria vaginalis ([12]; dose 5 g ai/a) | Herbicidal Effect slender amaranth ([14]; dose 2.5 g ai/a) | Herbicidal Effect slender amaranth ([14]; dose 5 g ai/a) | Herbicidal Effect velvetleaf (velvetleaf; dose 5 g ai/a) | Herbicidal Effect southern crabgrass ([15]; dose 2.5 g ai/a) | Herbicidal Effect southern crabgrass ([15]; dose 5 g ai/a)
4 (80%-less than 100%): Herbicidal Effect velvetleaf ([2]; dose 2.5 g ai/a) | Herbicidal Effect Japanese bulrush ([4]; dose 5 g ai/a) | Herbicidal Effect Barnyard grass ([8]; dose 2.5 g ai/a) | Herbicidal Effect velvetleaf (velvetleaf; dose 2.5 g ai/a)
3 (60%-less than 80%): Herbicidal Effect Japanese bulrush ([4]; dose 2.5 g ai/a) | Herbicidal Effect Flat sedge ([10]; dose 5 g ai/a)
1: Phytotoxicity soybean (soybean [1]; dose 5 g ai/a) | Phytotoxicity corn (corn [3]; dose 2.5 g ai/a) | Phytotoxicity corn (corn [3]; dose 5 g ai/a) | Phytotoxicity corn (corn [6]; dose 2.5 g ai/a) | Phytotoxicity corn (corn [6]; dose 5 g ai/a) | Phytotoxicity wheat (wheat [7]; dose 5 g ai/a) | Phytotoxicity wheat (wheat [11]; dose 2.5 g ai/a) | Phytotoxicity wheat (wheat [11]; dose 5 g ai/a)
